Legend:
[1] = Identification of incomplete hydrolytic products of CUR-2GE (UPLC-MS/MS); assay type: physicochemical; settings: buffer pH 1.2, 37°C, 24 h; ND = not detected
Protocol: The incomplete hydrolytic products of CUR-2GE were identified in buffers (pH 1.2, 4.5, 6.8 and 7.4) and human plasma. For hydrolysis in the buffer solutions, the stock solution of CUR-2GE at 200 μg/mL was diluted with a pre-incubated buffer in a vial at 37°C to obtain a final concentration at 10 μg/mL. Samples in buffers pH 1.2 and 4.5 were subsequently incubated at 37°C for 24 h while those in buffers pH 6.8 and 7.4 were incubated at 37°C for 7 min. For hydrolysis in human plasma, the stock solution of CUR-2GE at 100 μg/mL in the diluent was prepared and diluted with pre-incubated human plasma at 37°C for 5 min to obtain a final concentration of 5 μg/mL. The sample was incubated at 37°C for 1 h and an aliquot of 300 μL was added with 300 μL of acetonitrile to stop the reaction. The reaction mixture was then centrifuged at 4°C at 14,000 rpm for 30 min. The supernatant was analyzed using UPLC-MS/MS described below. CUR-2GE, CUR-1GE and curcumin standards were prepared at 10 μg/mL in diluent (2% acetic acid in water: acetonitrile (80: 20, v/v)) and were subjected to UPLC-MS/MS analysis. The retention times and MS/MS spectra of CUR-2GE and its hydrolytic products in buffers and human plasma were compared with those of the standards. The UPLC-MS/MS approach was modified from previous studies. […]

BV-2 microglial cells = assay: Cytotoxicity (MTT assay); assay type: cell-based, murine; settings: BV-2 cells, 24 h
Protocol: BV-2 microglial cells were cultured in DMEM supplemented with 10% fetal bovine serum, 2 mM L-glutamine, 1% penicillin/streptomycin (100 units/mL penicillin and 100 μg/mL streptomycin) at 37°C in 5% CO2. BV-2 microglial cells were plated in a 24-well plate at a density of 2 × 10^5 cells/well for 24 h. Various concentrations at 0, 1.25, 2.5, 5, 10, or 20 μM of curcumin or CUR-2GE were determined for a non-toxic concentration. After 24 h, cell viability was assessed by an MTT assay. The media was removed and replaced with an MTT solution in PBS (0.5 mg/mL). After 3-h incubation, the MTT solution was discarded, and formazan crystals formed after the reaction was dissolved in DMSO. The absorbance was then read at 540 nm using a microplate reader (CLARIOstar®, BMG Labtech, Ortenberg, Germany). The percentage of cell viability was expressed relative to the control cells. In addition, the cell viability of BV-2 microglial cells treated with LPS and a combination of LPS and the test compounds was also determined.

[2] = design: method as in PMID 29678124, PMID 25923809, PMID 27758710; settings: practically insoluble = <0.1 mg/mL; cited from earlier work
[3] = design: method as in PMID 9278892; settings: cited from earlier work

Q: Which “detection by UPLC-MS/MS after incubation of CUR-2GE” value [1] does the source give for curcumin here?
A: not detected

Q: What about the “non-toxic concentrations (no cytotoxicity)” value (BV-2 microglial cells) of the same substance?
A: ≤ 10 µM

Q: And the USP solubility classification [2]?
A: practically insoluble

Q: And the “half-life in human plasma, previously reported” value [3]?
A: 8 h

Reference: article PMC9048745, “Physicochemical investigation of a novel curcumin diethyl γ-aminobutyrate, a carbamate ester prodrug of curcumin with enhanced anti-neuroinflammatory activity” (PLoS ONE, 2022)
